pIC50, pKd: −log10 of the molar value. Where a name gives a salt, the structure may show the parent alone.
What was measured:
[1] = molecular target: T1, proMMP9(20-445;ΔFnII) (SEQ ID NO:6) (Homo sapiens, UniProt P14780, DEL216-390); assay: ThermoFluor with proMMP9(20-445;ΔFnII); conditions: read-out: proMMP9(20-445; ΔFnII) (SEQ ID NO: 6) binding
T1 construct: start methionine (N); made in house; host or cells: E. coli BL21(DE3) RIL
T1 sequence (P14780 with tags, fused parts or gaps DEL216-390): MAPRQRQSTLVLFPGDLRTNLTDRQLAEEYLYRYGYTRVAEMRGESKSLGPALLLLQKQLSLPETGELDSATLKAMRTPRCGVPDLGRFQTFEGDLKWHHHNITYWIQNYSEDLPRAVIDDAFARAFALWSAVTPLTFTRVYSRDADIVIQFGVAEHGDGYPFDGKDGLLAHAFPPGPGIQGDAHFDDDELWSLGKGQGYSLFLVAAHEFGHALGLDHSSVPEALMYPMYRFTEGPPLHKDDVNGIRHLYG
Method: (§1) The ThermoFluor® (TF) assay is a 384-well plate-based binding assay that measures thermal stability of proteins (Biomol Screen 2001, 6, 429-40; Biochemistry 2005, 44, 5258-66). The experiments were carried out using instruments available from Johnson & Johnson Pharmaceutical Research & Development, LLC. TF dye used in all experiments was […] (1,8-ANS) (Invitrogen: A-47).
(§2) Compounds were arranged in a pre-dispensed plate (Greiner Bio-one: 781280), wherein compounds were serially diluted in 100% DMSO across 11 columns within a series. Columns 12 and 24 were used as DMSO reference and contained no compound. For multiple compound concentration-response experiments, the compound aliquots (50 nL) were robotically predispensed directly into black 384-well polypropylene PCR microplates (Abgene: TF-0384/k) using a Cartesian Hummingbird liquid handler (DigiLab, Holliston, Mass.). Following compound dispense, protein and dye solutions were added to achieve the final assay volume of 3 μL. The assay solutions were overlayed with 1 μL of silicone oil (Fluka, type DC 200: 85411) to prevent evaporation.
(§3) Assay plates were robotically loaded onto a thermostatically controlled PCR-type thermal block and then heated from 40 to 90° C. at a ramp-rate of 1° C./min for all experiments. Fluorescence was measured by continuous illumination with UV light (Hamamatsu LC6) supplied via fiber optics and filtered through a band-pass filter (380-400 nm; >6 OD cutoff). Fluorescence emission of the entire 384-well plate was detected by measuring light intensity using a CCD camera (Sensys, Roper Scientific) filtered to detect 500±25 nm, resulting in simultaneous and independent readings of all 384 wells. A single image with 20-sec exposure time was collected at each temperature, and the sum of the pixel intensity in a given area of the assay plate was recorded vs temperature and fit to standard equations to yield the Tm (J Biomol Screen 2001, 6, 429-40).
(§4) Thermodynamic parameters necessary for fitting compound binding for each proMMP were estimated by differential scanning calorimetry (DSC) and from ThermoFluor® data. The heat capacity of unfolding for each protein was estimated from the molecular weight and from ThermoFluor® dosing data.
ThermoFluor® with proMMP9(20-445;ΔFnII) (SEQ ID NO:6)
The protein sample preparations included a desalting buffer exchange step via a PD-10 gravity column (GE Healthcare). The desalting buffer exchange was performed prior to diluting the protein to the final assay concentration of 2.8 μM proMMP9(20-445;ΔFnII) (SEQ ID NO:6). The concentration of proMMP9(20-445;ΔFnII) (SEQ ID NO:6) was determined spectrophotometrically based on a calculated extinction coefficient of ε280=39880 M^−1cm^−1, a calculated molecular weight of 28.2 kDa, and calculated pI of 5.5. ThermoFluor® reference conditions were define as follows: 80 μg/mL (2.8 μM) proMMP9(20-445;ΔFnII) (SEQ ID NO:6), 50 μM 1,8-ANS, pH 7.0 Buffer (50 mM HEPES pH 7.0, 100 mM NaCl, 0.001% Tween-20, 2.5 mM MgCl2, 300 μM CaCl2). The thermodynamic parameters for proMMP9(20-445;ΔFnII) (SEQ ID NO:6) are as follows: Tm (° C.)=72 (+/−0.1), ΔUH(Tm) (cal mol^−1)=160000(+/−5000), ΔUS(Tm) (cal mol^−1 K^−1)=434, ΔUCp (cal mol^−1 K^−1)=2400.

[2] = molecular target: T2, proMMP9(67-444;ΔFnII) (SEQ ID NO:5) (Homo sapiens, UniProt P14780, DEL216-390); assay: ThermoFluor with proMMP9(67-444;ΔFnII); conditions: read-out: proMMP9(67-444; ΔFnII) (SEQ ID NO: 5) binding
T2 construct: start methionine (N); made in house; host or cells: E. coli BL21(DE3) RIL
T2 sequence (P14780 with tags, fused parts or gaps DEL216-390): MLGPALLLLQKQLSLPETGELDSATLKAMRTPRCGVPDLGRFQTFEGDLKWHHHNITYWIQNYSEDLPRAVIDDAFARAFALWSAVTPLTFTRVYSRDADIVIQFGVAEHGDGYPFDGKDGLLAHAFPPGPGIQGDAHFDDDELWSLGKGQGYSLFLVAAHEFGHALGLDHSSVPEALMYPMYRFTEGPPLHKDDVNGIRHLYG
Method: as §1, §2, §3, §4
ThermoFluor® with proMMP9(67-444;ΔFnII) (SEQ ID NO:5)
The protein sample preparations had to include a desalting buffer exchange step via a PD-10 gravity column (GE Healthcare). The desalting buffer exchange was performed prior to diluting the protein to the final assay concentration of 3.5 μM proMMP9(67-444;ΔFnII) (SEQ ID NO:5). The concentration of proMMP9(67-444;ΔFnII) (SEQ ID NO:5) was determined spectrophotometrically based on a calculated extinction coefficient of ε280=33900 M^−1cm^−1, a calculated molecular weight of 22.6 kDa, and calculated pI of 5.20. ThermoFluor® reference conditions were defined as follows: 80 μg/mL (3.5 μM) proMMP9(67-444;ΔFnII) (SEQ ID NO:5), 50 μM 1,8-ANS, pH 7.0 Buffer (50 mM HEPES pH 7.0, 100 mM NaCl, 0.001% Tween-20, 2.5 mM MgCl2, 300 μM CaCl2). The thermodynamic parameters for proMMP9(67-444;ΔFnII) (SEQ ID NO:5) are as follows: Tm (° C.)=63 (+/−0.1), ΔUH(Tm) (cal mol^−1)=105000(+/−5000), ΔUS(Tm) (cal mol^−1 K^−1)=450, […].

[3] = molecular target: T3, full-length proMMP9(1-707) (SEQ ID NO:1) (Homo sapiens, UniProt P14780, R574P); assay: proMMP9/MMP3 P126 Activation Assay; type: biochemical; conditions: proMMP9(1-707) from HEK293 cells activated by catalytic MMP3
T3 construct: made in house; host or cells: HEK293 (proMMP9, secreted); E. coli (MMP3)
T3 sequence (P14780 20-707 R574P): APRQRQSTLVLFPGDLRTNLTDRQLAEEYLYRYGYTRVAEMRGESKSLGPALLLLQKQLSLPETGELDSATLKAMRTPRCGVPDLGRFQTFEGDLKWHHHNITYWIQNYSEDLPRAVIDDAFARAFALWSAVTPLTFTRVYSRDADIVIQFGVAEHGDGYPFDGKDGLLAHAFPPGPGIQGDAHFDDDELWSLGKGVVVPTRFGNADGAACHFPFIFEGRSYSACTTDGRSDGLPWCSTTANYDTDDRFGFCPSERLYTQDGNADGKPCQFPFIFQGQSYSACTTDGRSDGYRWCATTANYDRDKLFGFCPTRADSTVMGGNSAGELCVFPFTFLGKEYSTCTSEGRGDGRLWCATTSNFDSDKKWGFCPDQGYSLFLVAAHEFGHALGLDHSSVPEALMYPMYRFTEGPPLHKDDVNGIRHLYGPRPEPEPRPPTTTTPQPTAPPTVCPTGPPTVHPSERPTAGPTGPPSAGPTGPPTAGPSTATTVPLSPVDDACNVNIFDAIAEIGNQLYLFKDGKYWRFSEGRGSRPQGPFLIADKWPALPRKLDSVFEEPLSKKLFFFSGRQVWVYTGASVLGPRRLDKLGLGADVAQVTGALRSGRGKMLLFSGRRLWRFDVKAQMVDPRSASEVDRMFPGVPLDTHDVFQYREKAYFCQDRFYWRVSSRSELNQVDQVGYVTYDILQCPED
Method: proMMP9/MMP3 P126 Activation Assay
The reaction volume was 50 μL. […] Reactivity of residual MMP3 towards P-126 substrate was minimal under these conditions.

[4] = molecular target: T4, proMMP13(1-268) (SEQ ID NO:7) (Homo sapiens, UniProt P45452); assay: ProMMP13/Plasmin P126 Activation Assay; type: biochemical; conditions: proMMP13(1-268) activated by plasmin
T4 construct: 6×-histidine tag (C); made in house; host or cells: HEK293 (transient transfection, secreted)
Method: ProMMP13/Plasmin P126 Activation Assay
On the day of assay, proMMP13(1-268) (SEQ ID NO:7) purified from HEK293 cells and plasmin were diluted to 160 nM and 320 nM, respectively, in assay buffer. The reaction volume was 50 μL. […] The plate was sealed and incubated for 40 min at 37° C. […] Plasmin was not reactive towards P-126 substrate under these conditions.

Row | Structure (SMILES) | pKd [1] | pKd [2] | pIC50 [3] | pIC50 [4]
1 | CC(C)Oc1ccc(S(N)(=O)=O)cc1Nc1nc(-c2ccc(N3CCNCC3)cc2)cs1 [Example 1, 4-Isopropoxy-3-((4-(4-(piperazin-1-yl)phenyl)thiazol-2-yl)amino)benzenesulfonamide.TFA] | 7.82 | 8.22 | 7.70 | 6.64
2 | CC(C)Oc1ccc(S(N)(=O)=O)cc1Nc1nc(-c2ccc(N3CCNCC3)c(Br)c2)cs1 [Example 2, 3-((4-(3-Bromo-4-(piperazin-1-yl)phenyl)thiazol-2-yl)amino)-4-isopropoxybenzenesulfonamide.TFA] | 7.77 | 7.82 | 7.17 | 6.25
3 | CC(C)Oc1ccc(S(N)(=O)=O)cc1Nc1nc(-c2ccc(N3CCN(C)CC3)cc2)cs1 [Example 3, 4-Isopropoxy-3-((4-(4-(4-methylpiperazin-1-yl)phenyl)thiazol-2-yl)amino)benzenesulfonamide.HCl] | 7.06 | 7.06 | 7.13 | 6.41
4 | CC(C)Oc1ccc(S(N)(=O)=O)cc1Nc1nc(-c2ccc(CN3CCN(C(C)C)CC3)cc2)cs1 [Example 57, 4-isopropoxy-3-((4-(4-((4-isopropylpiperazin-1-yl)methyl)phenyl)thiazol-2-yl)amino)benzenesulfonamide.TFA] |  |  | 6.82 | 5.40
5 | CC(C)Oc1ccc(S(N)(=O)=O)cc1Nc1nc(-c2ccc(CN3CCOCC3)cc2)cs1 [Example 59, 4-isopropoxy-3-((4-(4-(morpholinomethyl)phenyl)thiazol-2-yl)amino)benzenesulfonamide.TFA] | 7.01 | 6.74 | 6.52 | 
6 | COc1ccc(F)cc1Nc1nc(-c2ccc(CN3CCN(C4CC4)CC3)cc2)cs1 [Example 60, 4-(4-((4-cyclopropylpiperazin-1-yl)methyl)phenyl)-N-(5-fluoro-2-methoxyphenyl)thiazol-2-amine.TFA] | 4.46 | 5.03 | 6.03 | 
7 | COc1ccc(F)cc1Nc1nc(-c2ccc(CN3CC[C@@H](F)C3)cc2)cs1 [Example 61, (R)—N-(5-fluoro-2-methoxyphenyl)-4-(4-((3-fluoropyrrolidin-1-yl)methyl)phenyl)thiazol-2-amine.TFA] | 4.28 | 5.25 | 5.82 | 
8 | COc1ccc(F)cc1Nc1nc(-c2ccc(CN3CCC(F)CC3)cc2)cs1 [Example 62, N-(5-fluoro-2-methoxyphenyl)-4-(4-((4-fluoropiperidin-1-yl)methyl)phenyl)thiazol-2-amine.TFA] | 4.35 | 5.24 | 5.80 | 

The remaining lines, values ahead:

Row | pKd [1] | pKd [2] | pIC50 [3] | pIC50 [4] | Structure (SMILES)
9 | 5.34 | 6.02 | 6.60 |  | COc1ccc(F)cc1Nc1nc(-c2ccc(CN3CCN(C(C)C)CC3)cc2)cs1 [Example 63, N-(5-fluoro-2-methoxyphenyl)-4-(4-((4-isopropylpiperazin-1-yl)methyl)phenyl)thiazol-2-amine.TFA]
10 | 4.32 | 5.21 | 5.70 |  | COc1ccc(F)cc1Nc1nc(-c2ccc(CN3CCOCC3)cc2)cs1 [Example 64, N-(5-fluoro-2-methoxyphenyl)-4-(4-(morpholinomethyl)phenyl)thiazol-2-amine.TFA]
11 | < 4.72 | 5.31 | ≤ 4.70 |  | CC(C)Oc1ccc(F)cc1Nc1nc(-c2ccc(OCCN3CCOCC3)cc2)cs1 [Example 65, N-(5-fluoro-2-isopropoxyphenyl)-4-(4-(2-morpholinoethoxy)phenyl)thiazol-2-amine.TFA]
12 | < 4.72 | 5.54 | 5.74 |  | COc1ccc(F)cc1Nc1nc(-c2ccc(OCCN3CCOCC3)cc2)cs1 [Example 66, N-(5-fluoro-2-methoxyphenyl)-4-(4-(2-morpholinoethoxy)phenyl)thiazol-2-amine.TFA]
13 | < 5.05 | 5.11 | ≤ 4.70 |  | COc1ccc(F)cc1Nc1nc(-c2ccc(OCCN3CCC(F)(F)CC3)cc2)cs1 [Example 67, 4-(4-(2-(4,4-difluoropiperidin-1-yl)ethoxy)phenyl)-N-(5-fluoro-2-methoxyphenyl)thiazol-2-amine.TFA]
14 | < 4.72 | 5.59 | 5.89 |  | COc1ccc(F)cc1Nc1nc(-c2ccc(OCCN3CCC(F)CC3)cc2)cs1 [Example 68, N-(5-fluoro-2-methoxyphenyl)-4-(4-(2-(4-fluoropiperidin-1-yl)ethoxy)phenyl)thiazol-2-amine.TFA]
15 | < 4.12 | 5.68 | 6.32 |  | COc1ccc(F)cc1Nc1nc(-c2ccc(OCCN3CCN(C4CC4)CC3)cc2)cs1 [Example 70, 4-(4-(2-(4-cyclopropylpiperazin-1-yl)ethoxy)phenyl)-N-(5-fluoro-2-methoxyphenyl)thiazol-2-amine.TFA]
16 | 4.36 | 5.74 | 6.70 |  | COc1ccc(F)cc1Nc1nc(-c2ccc(OCCCN3CCOCC3)cc2)cs1 [Example 71, N-(5-fluoro-2-methoxyphenyl)-4-(4-(3-morpholinopropoxy)phenyl)thiazol-2-amine.TFA]

Reference: patent publication US20120302569A1, “PHENYL-THIAZOLYL INHIBITORS OF PRO-MATRIX METALLOPROTEINASE ACTIVATION” (priority 2011, published 2012)
